Experimental data from patent EP3235511A1, “SULPHONAMIDE COMPOUNDS FOR USE IN THE TREATMENT OF HHV-8-ASSOCIATED DISEASES” (UNIVERSITA' DEGLI STUDI DI CAGLIARI, priority 2016, dated 2017).
Values after ≈ are worked out from the molar mass of the structure shown. Read-outs that look alike come from different tables or passages of the source.

Experiments:
KSHV virus [1] = settings: latent stage; cited from earlier work
KSHV virus [2] = settings: lytic stage; cited from earlier work
MDM2-p53 complex = target: T1, MDM2-p53 complex (Homo sapiens, UniProt Q00987); assay: ELISA-based P53-MDM2 binding assay
T1 construct: purchased Sigma
Protocol: In short, 96-well ELISA micro-plates (from Greiner Bio One, Austria) were coated for incubation overnight with 2 µg/mL p53 (human recombinant from Sigma) in PBS at 4 °C. The next day, the coating buffer was removed and the plates were incubated with Chemi-Blocker blocking buffer (from Merck-Millipore, Italy) for 2 hours at room temperature to block non-specific protein binding sites on the plate. […] The compounds under test were dissolved in DMSO (dimethyl sulfoxide, 5 mg/mL stock solution) and diluted in blocking buffer to obtain a final concentration of 50 µg/mL. The total incubation time of GST-MDM2 was 1 h. In order to evaluate the possible interactions of the compounds of the invention with, alternately, p53 and/or MDM2, the tests were conducted in three ways: a) pre-incubation with p53: the compounds were added to the coated micro-wells 30 min. before the GST-MDM2; b) pre-incubation with MDM2: the compounds were added to the GST-MDM2 solution for 30 minutes before adding to the wells; c) incubation after the formation of the p53-MDM2 complex: the compounds were added to the wells 30 minutes after treatment of GST-MDM2. After incubation, the plates were washed 4 times with PBST to remove the unbound MDM2 and incubated with a specific rabbit anti-GST monoclonal antibody (Sigma) diluted in 1/2000 blocking buffer for 1 h, followed by washing and incubation with a secondary immunoglobulin antibody conjugated with 1/200 anti-rabbit (horseradish) HR-peroxidase for 1 h (goat anti-rabbit IgG-HRP, Sigma). […] The absorbance was measured with a Microtiter plate reader (Model 680, from Bio-Rad, Hercules, CA) equipped with a 450 nm filter and the respective luminescence units (RLU) were measured. The inhibition percentage of the p53-MDM2 complex was calculated as follows: […]
Data are expressed as µg/mL ± SE average of three independent experiments.

HHV 8 in latent stage = assay: Detection of latent HHV 8 DNA by RT-PCR in BC3 cells; type: cell-based; settings: BC-3, 144 h, 6 days of culture, drug 100 µM, read-out: inhibition of viral DNA (antiviral activity)
Protocol: The antiviral activity of the sulphonamide compounds of the present invention was investigated using two different types of tests. In the first one, the DNA of HHV 8 in latent stage was detected by RT-PCR (Real Time- Polymerase Chain Reaction) (see Fig. 1) and in the second one, the LANA antigen was tested using a flow cytometric assay.

[3] = Cytotoxicity (MTT cell viability) on HUVEC primary cells; type: cell-based; settings: human
Protocol: (§1) A stock of human HUVEC umbilical cord primary cells (Invitrogen Life Technologies, UK) was cultured in a culture medium M200 (Gibco, Life Technologies, UK) with low serum growth supplement (LSGS, Invitrogen Life Technologies, UK). The HUVEC cells were always kept in a semi-confluent state and were sub-cultured at least once a week. Prior to testing, the cells were sub-cultured no more than 3-5 times. The BC3 cells permanently infected with HHV 8 were cultured in a RPMI 1640 medium supplemented with a 10% fetal calf serum (FCS) (Invitrogen Life Technologies, UK). The BC3 cells were used to produce 100x concentrated stocks of HHV 8, as described in the literature. The pellets of the virus was suspended in RPMI, filtered through a 0.22 µm filter and stored at -80 °C until use. The quantitative analysis of viral genomes present in the stock preparation was obtained by a real-time polymerase chain reaction (qPCR). […] For infection of cells, approximately 5.0 x 10^4 HUVEC cells/mL were seeded in 12 multi-well plates. The cells were infected with HHV 8, concentrated to a multiplicity of at least 10-20 genomes per cell in an M200 containing 2 µg/mL polibrene (esadimetrin bromide) for 2 hours at 37 °C. […] Only cell mono-layers with at least 70-80% of HHV 8 infected cells were used for the experiments.

[4] = Cytotoxicity (MTT cell viability) on BC3 cells; type: cell-based; settings: human
Protocol: as §1

in vitro = settings: human, thp-1 cells
Protocol: The THP-1 cells were purchased from Life Technologies (UK) and were cultured in RPMI 1640 medium with 10% fetal bovine serum (FBS).
The cytotoxicity of the compounds under test was assessed by measuring the effect on the cell morphology and the cell viability in vitro. Cell mono-layers were prepared in 24-well tissue culture plates and exposed to various concentrations of the compounds being tested.
The plates were controlled by optical microscopy after 24, 48 and 72 h. Cytotoxicity was evaluated as morphologic changes (for example, rounding, contractions, detachments). The cell viability was determined by means of a tetrazolium-based colorimetric method using the compound 3-(4,5-dimethylthiazol-2-yl)-2,5-diphenyl-tetrazolium bromide (MTT). The cytotoxic dose of 50% (CD50) is the concentration of the compound which reduces the absorbency of the control sample by 50%.

[5] = read-out: inhibition of MDM2-p53 complex formation

T1 sequence (Q00987 whole entry, one chain of several): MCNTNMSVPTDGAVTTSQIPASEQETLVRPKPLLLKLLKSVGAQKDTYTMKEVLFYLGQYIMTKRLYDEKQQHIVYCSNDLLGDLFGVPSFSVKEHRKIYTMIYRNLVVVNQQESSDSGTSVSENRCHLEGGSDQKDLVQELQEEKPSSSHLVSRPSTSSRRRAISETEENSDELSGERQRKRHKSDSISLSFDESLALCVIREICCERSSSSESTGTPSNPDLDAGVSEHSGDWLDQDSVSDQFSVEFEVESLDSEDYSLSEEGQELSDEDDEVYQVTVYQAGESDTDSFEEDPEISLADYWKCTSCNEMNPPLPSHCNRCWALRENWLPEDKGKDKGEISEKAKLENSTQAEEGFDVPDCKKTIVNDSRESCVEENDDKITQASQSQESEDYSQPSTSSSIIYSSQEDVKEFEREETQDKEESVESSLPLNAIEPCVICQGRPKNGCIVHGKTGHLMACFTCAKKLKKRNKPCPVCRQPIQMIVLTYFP

| SMILES | Action on the latent virus (KSHV virus [1]) | Action on the lytic virus (KSHV virus [2]) | inhibition at 100 µM (HHV 8 in latent stage) [%] | further results |
| --- | --- | --- | --- | --- |
| O=C(O)P(=O)(O)O [Foscarnet] | no inhibition | inhibition | – | – |
| Cc1cc(NS(=O)(=O)c2ccc(N)cc2)no1 [BC6, sulfamethoxazole] | – | – | 93 | inhibition at 50 µg/mL (MDM2-p53 complex; [5]): 56% |
| [H]/N=C(/N)NS(=O)(=O)c1ccc(N)cc1 [SG3, sulphaguanidine] | – | – | 52.3 | CC50 [3]: ~500 µg/mL (≈ 2330 µM); CC50 [4]: 100 µg/mL (≈ 467 µM); CC50 (in vitro): ~125 µg/mL (≈ 583 µM) |
| Nc1ccc(S(N)(=O)=O)cc1 [SA4, sulphanilamide] | – | – | 92 | inhibition at 50 µg/mL (MDM2-p53 complex; [5]): 50% |
| Nc1nc2c(ncn2COCCO)c(=O)[nH]1 [Acyclovir] | no inhibition | inhibition | – | – |
| Nc1ccc(S(=O)(=O)Nc2nccs2)cc1 [ST5, sulfathiazole] | – | – | 88.5 | CC50 [3]: ~250 µg/mL (≈ 979 µM); inhibition at 50 µg/mL (MDM2-p53 complex; added to the ELISA wells 60 minutes after the complex had formed, 50 µg/mL, p = < 0.01, read-out: breaking down the complex already formed): ~48%; inhibition at 50 µg/mL (MDM2-p53 complex; compound added before the formation of the complex, 50 µg/mL, read-out: inhibition of MDM2-p53 complex formation): ~70%; CC50 [4]: 100 µg/mL (≈ 393 µM); CC50 (in vitro): ~30 µg/mL (≈ 117 µM) |
| CC1(C)[C@@H](O[C@H]2O[C@H](C(=O)O)[C@@H](O)[C@H](O)[C@H]2O[C@@H]2O[C@H](C(=O)O)[C@@H](O)[C@H](O)[C@H]2O)CC[C@]2(C)[C@H]3C(=O)C=C4[C@@H]5C[C@@](C)(C(=O)O)CC[C@]5(C)CC[C@@]4(C)[C@]3(C)CC[C@@H]12 [Glycyrrhizic acid] | Apoptosis | inhibition | – | – |
